Reference: PubChem BioAssay AID248 (DTP/NCI, 2004)
Where “and” joins values, the source holds several entries; their conditions need not be identical. Identical values can stand only once. Toxic doses and inconclusive results are not listed. Rule as the data show it: active = T/C of 150% or more; inactive = T/C below 125%.

System: L1210 leukemia ip in BDF1 mice, survival T/C
Assay: NCI In Vivo Anticancer Drug Screen. Data for tumor model L1210 Leukemia (intraperitoneal) in B6D2F1 (BDF1) mice
Details: endpoint: mean survival time, higher = longer survival
Outline: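 Mice bearing the transplanted tumor received compound or vehicle. Survival of the treated group was divided by that of the vehicle-treated control group to give the ratio.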

[1] = dose: 100.0 mg/kg/injection, schedule: Q01DX001 (ip), vehicle: saline
[2] = dose: 200.0 mg/kg/injection, schedule: Q01DX001 (ip), vehicle: saline
[3] = dose: 400.0 mg/kg/injection, schedule: Q01DX001 (ip), vehicle: saline
[4] = dose: 100.0 mg/kg/injection, schedule: Q04DX003 (ip), vehicle: saline with Tween-80
[5] = dose: 200.0 mg/kg/injection, schedule: Q04DX003 (ip), vehicle: saline with Tween-80
[6] = dose: 400.0 mg/kg/injection, schedule: Q04DX003 (ip), vehicle: saline with Tween-80
[7] = dose: 100.0 mg/kg/injection, schedule: Q04DX003 (ip), vehicle: Klucel (hydroxypropylcellulose) (HPC)
[8] = dose: 200.0 mg/kg/injection, schedule: Q04DX003 (ip), vehicle: Klucel (hydroxypropylcellulose) (HPC)
[9] = dose: 400.0 mg/kg/injection, schedule: Q04DX003 (ip), vehicle: Klucel (hydroxypropylcellulose) (HPC)
[10] = dose: 50.0 mg/kg/injection, schedule: Q01DX001 (ip), vehicle: saline
[11] = dose: 100.0 mg/kg/injection, schedule: Q04DX002 (ip), vehicle: gum acacia
[12] = dose: 100.0 mg/kg/injection, schedule: Q04DX002 (ip), vehicle: saline
[13] = dose: 100.0 mg/kg/injection, schedule: Q01DX001 (ip), vehicle: carboxymethylcellulose (CMC)
[14] = dose: 200.0 mg/kg/injection, schedule: Q01DX001 (ip), vehicle: carboxymethylcellulose (CMC)
[15] = dose: 400.0 mg/kg/injection, schedule: Q01DX001 (ip), vehicle: carboxymethylcellulose (CMC)

Measured: T/C

NC(=O)NOCc1cscn1
inactive: [1] 95 % of control | [2] 97 % of control | [3] 97 % of control

CCOC(=O)C(C#N)=C1CC(C)OC(C)C1 (centres undefined)
inactive: [4] 100 % of control | [5] 97 % of control | [6] 103 % of control

O=C(O)C(CSC(c1ccccc1)(c1ccccc1)c1ccccc1)NSc1ccccc1[N+](=O)[O-] (centres undefined)
inactive: dose: 100.0 mg/kg/injection, schedule: Q01DX009 (ip), vehicle: Klucel (hydroxypropylcellulose) (HPC) 114 % of control | [7] 98 % of control | dose: 175.0 mg/kg/injection, schedule: Q01DX009 (ip), vehicle: Klucel (hydroxypropylcellulose) (HPC) 98 % of control | dose: 200.0 mg/kg/injection, schedule: Q01DX009 (ip), vehicle: Klucel (hydroxypropylcellulose) (HPC) 121 % of control | [8] 102 % of control | dose: 265.0 mg/kg/injection, schedule: Q01DX009 (ip), vehicle: Klucel (hydroxypropylcellulose) (HPC) 100 % of control | dose: 400.0 mg/kg/injection, schedule: Q01DX009 (ip), vehicle: Klucel (hydroxypropylcellulose) (HPC) 110 % of control | [9] 95 % of control

CC1=C(N)C(=O)C(C)=C(N)C1=O
inactive: dose: 100.0 mg/kg/injection, schedule: Q01DX001 (ip), vehicle: other 98 % of control | dose: 200.0 mg/kg/injection, schedule: Q01DX001 (ip), vehicle: other 88 % of control | dose: 400.0 mg/kg/injection, schedule: Q01DX001 (ip), vehicle: other 97 % of control

CCOC(=O)C1CN(C(C)C)C(=O)C1=O (centres undefined)
inactive: [10] 100 % of control | [1] 102 % of control | [2] 96 % of control | [3] 114 % of control

O=[N+]([O-])c1ccc(CBr)c(I)c1
inactive: dose: 75.0 mg/kg/injection, schedule: Q01DX001 (ip), vehicle: other 98 % of control | dose: 150.0 mg/kg/injection, schedule: Q01DX001 (ip), vehicle: other 102 % of control | dose: 300.0 mg/kg/injection, schedule: Q01DX001 (ip), vehicle: other 94 % of control

NC(=N\C1=NCCN1)/C(N)=N/C1=NCCN1
inactive: [11] 89 % of control | dose: 200.0 mg/kg/injection, schedule: Q04DX002 (ip), vehicle: gum acacia 100 % of control | dose: 400.0 mg/kg/injection, schedule: Q04DX002 (ip), vehicle: gum acacia 97 % of control

O=C(C=C(C(F)(F)F)C(F)(F)F)c1cc(Cl)ccc1Cl
inactive: dose: 12.5 mg/kg/injection, schedule: Q01DX009 (ip), vehicle: saline with Tween-80 110 % of control | dose: 12.5 mg/kg/injection, schedule: Q04DX003 (ip), vehicle: saline with Tween-80 97 % of control | dose: 25.0 mg/kg/injection, schedule: Q01DX009 (ip), vehicle: saline with Tween-80 102 % of control | dose: 25.0 mg/kg/injection, schedule: Q04DX003 (ip), vehicle: saline with Tween-80 100 % of control | dose: 50.0 mg/kg/injection, schedule: Q04DX003 (ip), vehicle: saline with Tween-80 105 % of control

CC(C)=CCC(C)c1ccncc1 (centres undefined)
inactive: [1] 102 % of control | [2] 97 % of control | [3] 102 % of control

Cc1cccc(SC(=O)SC(C)CN)c1 (centres undefined)
inactive: dose: 25.0 mg/kg/injection, schedule: Q04DX002 (ip), vehicle: saline 99 % of control | dose: 50.0 mg/kg/injection, schedule: Q04DX002 (ip), vehicle: saline 105 % of control | [12] 94 % of control and 99 % of control

N#C/C(=C\c1cc(Br)cc(Br)c1O)c1ccc([N+](=O)[O-])cc1
inactive: [4] 97 % of control | [5] 87 % of control | [6] 102 % of control

O=C(COc1cccc(Cl)c1)Nc1ccccc1
inactive: dose: 100.0 mg/kg/injection, schedule: Q01DX009 (ip), vehicle: saline with Tween-80 94 % of control | dose: 200.0 mg/kg/injection, schedule: Q01DX009 (ip), vehicle: saline with Tween-80 100 % of control | dose: 400.0 mg/kg/injection, schedule: Q01DX009 (ip), vehicle: saline with Tween-80 89 % of control

CCOC(=O)Nc1ccc2c(c1)/C(=N/O)c1ccccc1-2
inactive: [13] 94 % of control | [14] 91 % of control | [15] 91 % of control

O=C(O)C[S+]1CCSCC1
inactive: [12] 105 % of control | dose: 200.0 mg/kg/injection, schedule: Q04DX002 (ip), vehicle: saline 105 % of control | dose: 400.0 mg/kg/injection, schedule: Q04DX002 (ip), vehicle: saline 105 % of control

CC(=O)OCC(OC(C)=O)C(OC(C)=O)C(/C=C/N=[N+]([O-])c1ccccc1)OC(C)=O (centres undefined)
inactive: [10] 100 % of control | [1] 94 % of control | [2] 100 % of control

O=c1nc(NO)c(Br)cn1C1CCCCO1 (centres undefined)
inactive: [13] 96 % of control | [14] 96 % of control | [15] 96 % of control

O=C1OC(=O)C2C1C=C(c1ccccc1)C1C3C=CC(C4C(=O)OC(=O)C34)C21 (centres undefined)
inactive: [10] 98 % of control | [1] 101 % of control | [2] 104 % of control | [3] 106 % of control

O=S1(=O)C(Cl)c2ccccc2-c2ccccc2C1Cl (centres undefined)
inactive: dose: 25.0 mg/kg/injection, schedule: Q04DX002 (ip), vehicle: gum acacia 89 % of control | dose: 50.0 mg/kg/injection, schedule: Q04DX002 (ip), vehicle: gum acacia 89 % of control | [11] 93 % of control

CCCC[n+]1ccc(C#N)cc1
inactive: dose: 75.0 mg/kg/injection, schedule: Q01DX001 (ip), vehicle: saline 103 % of control | dose: 150.0 mg/kg/injection, schedule: Q01DX001 (ip), vehicle: saline 95 % of control

O=S(Sc1ccc(N(CCCl)CCCl)cc1)c1ccc(N(CCCl)CCCl)cc1 (centres undefined)
inactive: dose: 100.0 mg/kg/injection, schedule: Q01DX001 (ip), vehicle: Klucel (hydroxypropylcellulose) (HPC) 95 % of control | dose: 100.0 mg/kg/injection, schedule: Q01DX009 (ip), vehicle: gum acacia 86 % of control | dose: 200.0 mg/kg/injection, schedule: Q01DX001 (ip), vehicle: Klucel (hydroxypropylcellulose) (HPC) 108 % of control | dose: 200.0 mg/kg/injection, schedule: Q01DX009 (ip), vehicle: gum acacia 93 % of control | dose: 400.0 mg/kg/injection, schedule: Q01DX001 (ip), vehicle: Klucel (hydroxypropylcellulose) (HPC) 93 % of control | dose: 400.0 mg/kg/injection, schedule: Q01DX009 (ip), vehicle: gum acacia 122 % of control

CC1=NN(c2ccccc2)/C(=N/N=C(N)N)C1CC1C(C)=NN(c2ccccc2)/C1=N/N=C(N)N (centres undefined)
inactive: dose: 15.0 mg/kg/injection, schedule: Q01DX Z (ip), vehicle: carboxymethylcellulose (CMC) 102 % of control | dose: 30.0 mg/kg/injection, schedule: Q01DX Z (ip), vehicle: carboxymethylcellulose (CMC) 97 % of control | dose: 60.0 mg/kg/injection, schedule: Q01DX Z (ip), vehicle: carboxymethylcellulose (CMC) 100 % of control and 102 % of control | dose: 120.0 mg/kg/injection, schedule: Q01DX Z (ip), vehicle: carboxymethylcellulose (CMC) 95 % of control and 96 % of control | dose: 240.0 mg/kg/injection, schedule: Q01DX Z (ip), vehicle: carboxymethylcellulose (CMC) 91 % of control

O=C1c2cc(Br)cc(Br)c2NCCCC1(Br)Br
inactive: [7] 94 % of control | [8] 97 % of control | [9] 94 % of control
